Literature values in patent US20130143970A1, “MEDICINAL PREPARATION PARTICULARLY FOR THE TREATMENT OF SLIPPED DISCS HERNIAS” (priority 2002, published 2013).

Conditions: intradiscal injections

Structure (SMILES): CCO [absolute alcohol, ethanol]
- treatment results in lumbar discal hernias: very promising results
